Data as given in PubChem BioAssay AID1963833 (Molecular Pharmacology Branch, DTP, NCI, 2024).

System: 883617-216-R-J1-PDC complex spheroid viability
Assay: Anticancer human tumor 883617-216-R-J1-PDC patient-derived bladder carcinoma cell line growth inhibition [POLQ]
Conditions: for IC50: curve of first compound; for viability, T/C: stronger effect = lower value; active means viability on the fitted dose curve at most 10% of control; inactive means the rest
Outline: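 Three-cell-type spheroids modelling solid tumor plus stroma served as the readout system; POL inhibitors were tested individually and in combination, concentration ranges set by clinical Cmax where known.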

[1] = second compound 0.0316 µM, first compound 0.0316 µM
[2] = second compound 0.0316 µM, first compound 0.1 µM
[3] = second compound 0.0316 µM, first compound 0.316 µM
[4] = second compound 0.0316 µM, first compound 1 µM
[5] = second compound 0.0316 µM, first compound 3.16 µM
[6] = second compound 0.0316 µM, first compound 10 µM
[7] = second compound 0.1 µM, first compound 0.0316 µM
[8] = second compound 0.1 µM, first compound 0.1 µM
[9] = second compound 0.1 µM, first compound 0.316 µM
[10] = second compound 0.1 µM, first compound 1 µM
[11] = second compound 0.1 µM, first compound 3.16 µM
[12] = second compound 0.1 µM, first compound 10 µM
[13] = second compound 0.316 µM, first compound 0.0316 µM
[14] = second compound 0.316 µM, first compound 0.1 µM
[15] = second compound 0.316 µM, first compound 0.316 µM
[16] = second compound 0.316 µM, first compound 1 µM
[17] = second compound 0.316 µM, first compound 3.16 µM
[18] = second compound 0.316 µM, first compound 10 µM
[19] = second compound 1 µM, first compound 0.0316 µM
[20] = second compound 1 µM, first compound 0.1 µM
[21] = second compound 1 µM, first compound 0.316 µM
[22] = second compound 1 µM, first compound 1 µM
[23] = second compound 1 µM, first compound 3.16 µM
[24] = second compound 1 µM, first compound 10 µM
[25] = second compound 3.16 µM, first compound 0.0316 µM
[26] = second compound 3.16 µM, first compound 0.1 µM
[27] = second compound 3.16 µM, first compound 0.316 µM
[28] = second compound 3.16 µM, first compound 1 µM
[29] = second compound 3.16 µM, first compound 3.16 µM
[30] = second compound 3.16 µM, first compound 10 µM
[31] = second compound 10 µM, first compound 0.0316 µM
[32] = second compound 10 µM, first compound 0.1 µM
[33] = second compound 10 µM, first compound 0.316 µM
[34] = second compound 10 µM, first compound 1 µM
[35] = second compound 10 µM, first compound 3.16 µM
[36] = second compound 10 µM, first compound 10 µM
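Further: spheroids exposed to compounds for seven days before readout.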
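Wherever viability, T/C is given: 100% = DMSO vehicle control viability.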

C#Cc1c(F)ccc2cc(O)cc(-c3ncc4c(N5CC6CCC(C5)N6)nc(OCC56CCCN5CC(F)C6)nc4c3F)c12 (stereo not given) + COC1C(OC(N)=O)C(O)C(Oc2ccc3c(O)c(NC(=O)c4ccc(O)c(CC=C(C)C)c4)c(=O)oc3c2C)OC1(C)C
inactive: viability, T/C [1] 90.3% | viability, T/C [2] 108% | viability, T/C [3] 96.2% | viability, T/C [4] 97.9% | viability, T/C [5] 81.1% | viability, T/C [6] 75% | viability, T/C [7] 121% | viability, T/C [8] 100% | viability, T/C [9] 90.4% | viability, T/C [10] 83.4% | viability, T/C [11] 87.3% | viability, T/C [12] 78.2% | viability, T/C [13] 96.1% | viability, T/C [14] 114% | viability, T/C [15] 90% | viability, T/C [16] 91% | viability, T/C [17] 70.3% | viability, T/C [18] 67% | viability, T/C [19] 99.7% | viability, T/C [20] 98.8% | viability, T/C [21] 83.8% | viability, T/C [22] 91.4% | viability, T/C [23] 81.9% | viability, T/C [24] 86.3% | viability, T/C [25] 98.6% | viability, T/C [26] 93.6% | viability, T/C [27] 95.5% | viability, T/C [28] 94.4% | viability, T/C [29] 84.4% | viability, T/C [30] 76.3% | viability, T/C [31] 85.8% | viability, T/C [32] 101% | viability, T/C [33] 101% | viability, T/C [34] 85.7% | viability, T/C [35] 91.8% | viability, T/C [36] 73.6%
> 10000 nM: IC50 (second compound 0.0316 µM) | IC50 (second compound 0.1 µM) | IC50 (second compound 0.316 µM) | IC50 (second compound 1 µM) | IC50 (second compound 3.16 µM) | IC50 (second compound 10 µM)

CC1COCCN1c1cc(C2(O)CC3CCC(C2)O3)c2cnn(-c3ccn[nH]3)c2n1 (stereo not given) + COC1C(OC(N)=O)C(O)C(Oc2ccc3c(O)c(NC(=O)c4ccc(O)c(CC=C(C)C)c4)c(=O)oc3c2C)OC1(C)C
inactive: viability, T/C [1] 72.8% | viability, T/C [2] 49.2% | viability, T/C [3] 35.2% | viability, T/C [4] 34.4% | viability, T/C [5] 24.9% | viability, T/C [6] 21.8% | viability, T/C [7] 66.8% | viability, T/C [8] 56.8% | viability, T/C [9] 42.3% | viability, T/C [10] 27.6% | viability, T/C [11] 25% | viability, T/C [12] 21.8% | viability, T/C [13] 68.4% | viability, T/C [14] 53.1% | viability, T/C [15] 40.9% | viability, T/C [16] 27.7% | viability, T/C [17] 25.6% | viability, T/C [18] 21.7% | viability, T/C [19] 73.4% | viability, T/C [20] 45.2% | viability, T/C [21] 37.1% | viability, T/C [22] 30.7% | viability, T/C [23] 25.9% | viability, T/C [24] 22.3% | viability, T/C [25] 68.7% | viability, T/C [26] 52.4% | viability, T/C [27] 40.9% | viability, T/C [28] 32.4% | viability, T/C [29] 27.8% | viability, T/C [30] 21.3% | viability, T/C [31] 58.5% | viability, T/C [32] 52.5% | viability, T/C [33] 42.9% | viability, T/C [34] 31.2% | viability, T/C [35] 29.1% | viability, T/C [36] 23%
107 nM: IC50 (second compound 10 µM)
102 nM: IC50 (second compound 0.0316 µM)
135 nM: IC50 (second compound 0.316 µM) | IC50 (second compound 3.16 µM)
170 nM: IC50 (second compound 0.1 µM)
90.6 nM: IC50 (second compound 1 µM)

CCc1cc2c(N3CCc4c(cc(Cn5ccnc5)cc4-c4cn(C)nc4C(F)(F)F)C3=O)cc(C)nc2c(OC)n1 + COC1C(OC(N)=O)C(O)C(Oc2ccc3c(O)c(NC(=O)c4ccc(O)c(CC=C(C)C)c4)c(=O)oc3c2C)OC1(C)C
inactive: viability, T/C [1] 96.2% | viability, T/C [2] 105% | viability, T/C [3] 96.8% | viability, T/C [4] 80.6% | viability, T/C [5] 77.2% | viability, T/C [6] 58.9% | viability, T/C [7] 98.4% | viability, T/C [8] 106% | viability, T/C [9] 109% | viability, T/C [10] 94.9% | viability, T/C [11] 68% | viability, T/C [12] 47.6% | viability, T/C [13] 107% | viability, T/C [14] 109% | viability, T/C [15] 105% | viability, T/C [16] 86.2% | viability, T/C [17] 75% | viability, T/C [18] 48% | viability, T/C [19] 99% | viability, T/C [20] 101% | viability, T/C [21] 96.6% | viability, T/C [22] 106% | viability, T/C [23] 75.3% | viability, T/C [24] 61.3% | viability, T/C [25] 96.3% | viability, T/C [26] 103% | viability, T/C [27] 115% | viability, T/C [28] 89.7% | viability, T/C [29] 75.8% | viability, T/C [30] 58.4% | viability, T/C [31] 99.8% | viability, T/C [32] 99.6% | viability, T/C [33] 97.1% | viability, T/C [34] 97.4% | viability, T/C [35] 72.7% | viability, T/C [36] 59.4%
8760 nM: IC50 (second compound 0.1 µM)
9290 nM: IC50 (second compound 0.316 µM)
> 10000 nM: IC50 (second compound 0.0316 µM) | IC50 (second compound 1 µM) | IC50 (second compound 3.16 µM) | IC50 (second compound 10 µM)

O=C(Nc1ccc(O)c(NS(=O)(=O)c2ccc(F)cc2)c1)c1ccc(-c2ccccc2)cc1 + COC1C(OC(N)=O)C(O)C(Oc2ccc3c(O)c(NC(=O)c4ccc(O)c(CC=C(C)C)c4)c(=O)oc3c2C)OC1(C)C
inactive: viability, T/C [1] 95.1% | viability, T/C [2] 90.8% | viability, T/C [3] 83.6% | viability, T/C [4] 84.6% | viability, T/C [5] 95.9% | viability, T/C [6] 64.9% | viability, T/C [7] 81.6% | viability, T/C [8] 100% | viability, T/C [9] 81% | viability, T/C [10] 89.6% | viability, T/C [11] 81.3% | viability, T/C [12] 62.4% | viability, T/C [13] 88.1% | viability, T/C [14] 104% | viability, T/C [15] 83.8% | viability, T/C [16] 90.1% | viability, T/C [17] 89.5% | viability, T/C [18] 53.2% | viability, T/C [19] 86.4% | viability, T/C [20] 86.5% | viability, T/C [21] 93.3% | viability, T/C [22] 90.4% | viability, T/C [23] 81.7% | viability, T/C [24] 62.9% | viability, T/C [25] 88.9% | viability, T/C [26] 96.4% | viability, T/C [27] 97.3% | viability, T/C [28] 73.5% | viability, T/C [29] 77% | viability, T/C [30] 65.7% | viability, T/C [31] 103% | viability, T/C [32] 87.5% | viability, T/C [33] 98.3% | viability, T/C [34] 83.2% | viability, T/C [35] 89.7% | viability, T/C [36] 70.4%
> 10000 nM: IC50 (second compound 0.0316 µM) | IC50 (second compound 0.1 µM) | IC50 (second compound 0.316 µM) | IC50 (second compound 1 µM) | IC50 (second compound 3.16 µM) | IC50 (second compound 10 µM)

COc1cccc2c1C(=O)c1c(O)c3c(c(O)c1C2=O)CC(O)(C(=O)CO)CC3OC1CC(N)C(O)C(C)O1 (stereo not given) + Cc1cccc(N(C)C(=O)C2C(O)CCN2c2nc(C)cc(C(F)(F)F)c2C#N)c1
311 nM: IC50 (second compound 0.0316 µM)
inactive: viability, T/C [1] 78% | viability, T/C [2] 60.8% | viability, T/C [3] 52.2% | viability, T/C [4] 9.43% | viability, T/C [7] 66.1% | viability, T/C [8] 67.9% | viability, T/C [9] 43.2% | viability, T/C [13] 74.3% | viability, T/C [14] 59.8% | viability, T/C [15] 45.4% | viability, T/C [19] 65.1% | viability, T/C [20] 57.5% | viability, T/C [21] 55.6% | viability, T/C [25] 66.8% | viability, T/C [26] 57.3% | viability, T/C [27] 43.7% | viability, T/C [31] 66% | viability, T/C [32] 58.1% | viability, T/C [33] 51.9%
330 nM: IC50 (second compound 10 µM)
359 nM: IC50 (second compound 1 µM)
active: viability, T/C [5] 0.22% | viability, T/C [6] 0.21% | viability, T/C [10] 8.29% | viability, T/C [11] 0.32% | viability, T/C [12] 0.2% | viability, T/C [16] 6.2% | viability, T/C [17] 0.22% | viability, T/C [18] 0.2% | viability, T/C [22] 5.25% | viability, T/C [23] 0.22% | viability, T/C [24] 0.2% | viability, T/C [28] 3.99% | viability, T/C [29] 0.31% | viability, T/C [30] 0.29% | viability, T/C [34] 1.41% | viability, T/C [35] 0.35% | viability, T/C [36] 0.34%
206 nM: IC50 (second compound 3.16 µM)
222 nM: IC50 (second compound 0.316 µM)
228 nM: IC50 (second compound 0.1 µM)
